Earlier results, collected in patent publication US5681568A, “Device for delivery of substances and methods of use thereof” (Cambridge NeuroScience, Inc., priority 1994, dated 1997).

What was measured:
[1] = in vivo
[2] = tested on: hypoxic/ischemic brain injury; settings: rat
[3] = tested on: experimental cerebral ischemia; settings: after experimental cerebral ischemia, rabbit
[4] = presence of heparin
[5] = tested on: nerve regeneration; settings: in vivo

For `CSCC[C@@H]1NC(=O)[C@H](CC(C)C)NC(=O)[C@H](CCCNC(=N)N)NC(=O)[C@H](CO)NC(=O)[C@@H]2CSSC[C@@H]3NC(=O)[C@H](CO)NC(=O)CNC(=O)[C@H]([C@@H](C)O)NC(=O)[C@H](CSSC[C@H](N)C(=O)N[C@@H](CCCCN)C(=O)NCC(=O)N[C@@H](CCCCN)C(=O)NCC(=O)N[C@@H](C)C(=O)N[C@@H](CCCCN)C(=O)N2)NC(=O)[C@H](CSSC[C@@H](C(N)=O)NC(=O)[C@H](CCCCN)NC(=O)CNC(=O)[C@H](CO)NC(=O)[C@H](CCCNC(=N)N)NC3=O)NC(=O)[C@H](CC(=O)O)NC(=O)[C@H](Cc2ccc(O)cc2)NC1=O` [SNX111], the toxic side effects [1] is given as “severe hypotension”.

For “IGF-1: insulin-like growth factors (IGFs)”, the “effects in models of hypoxic/ischemic brain injury” value [2] is given as “therapeutically relevant effects”.

For TGFβ1: Transforming growth factor β1, the “effect on infarct size” value [3] is given as “reduce infarct size” and the “effects in models of hypoxic/ischemic brain injury” value [2] is given as “therapeutically relevant effects”.

For “acidic FGF: member of the fibroblast growth factor (FGF) family known to associate with heparin”, the “effect of heparin on the factor's activity” value [4] is given as “can potentiate the factor's activity”.

For bFGF: Basic fibroblast growth factor, the “effect on nerve regeneration” value [5] is given as “therapeutic relevant effect on nerve regeneration”.
